Experimental data taken from the NIST ThermoML archive (doi:10.1016/j.jct.2013.05.051).
± gives the expanded uncertainty stated by the source.

Assay: xn = mol fraction of the nth substance listed
Details: Liquid, Vibrating tube method, x2 = 0

CCCCCCC [heptane] + CCCCCCCO
mass density [kg/m3]
Details	298.15 K	313.15 K	333.15 K	353.15 K	373.15 K	393.15 K
100 kPa	679.5 ± 1.4	666.6 ± 1.4	648.9 ± 1.4	631.2 ± 1.4	–	–
1000 kPa	680.4 ± 1.4	667.6 ± 1.4	650 ± 1.4	632.1 ± 1.4	613.3 ± 1.4	593.5 ± 1.4
5000 kPa	684.2 ± 1.4	671.8 ± 1.4	655 ± 1.4	637.8 ± 1.4	620.1 ± 1.4	601.7 ± 1.4
10000 kPa	688.6 ± 1.4	676.7 ± 1.4	660.6 ± 1.4	644.3 ± 1.4	627.7 ± 1.4	610.6 ± 1.4
15000 kPa	692.8 ± 1.4	681.3 ± 1.4	665.8 ± 1.4	650.3 ± 1.4	634.5 ± 1.5	618.4 ± 1.5
20000 kPa	696.7 ± 1.5	685.6 ± 1.5	670.6 ± 1.5	655.7 ± 1.5	640.7 ± 1.5	625.4 ± 1.5
25000 kPa	700.4 ± 1.5	689.5 ± 1.5	675.1 ± 1.5	660.8 ± 1.5	646.3 ± 1.5	631.7 ± 1.5
30000 kPa	704 ± 1.5	693.5 ± 1.5	679.4 ± 1.5	665.5 ± 1.5	651.6 ± 1.5	637.5 ± 1.5
35000 kPa	707.4 ± 1.5	697.1 ± 1.5	683.4 ± 1.5	670 ± 1.5	656.5 ± 1.5	643 ± 1.5
40000 kPa	710.7 ± 1.5	700.5 ± 1.5	687.3 ± 1.5	674.1 ± 1.5	661.1 ± 1.5	648 ± 1.6
45000 kPa	713.8 ± 1.5	703.9 ± 1.5	690.9 ± 1.5	678.1 ± 1.6	665.5 ± 1.6	652.8 ± 1.6
50000 kPa	716.8 ± 1.5	707.2 ± 1.6	694.4 ± 1.6	682 ± 1.6	669.6 ± 1.6	657.2 ± 1.6
55000 kPa	719.7 ± 1.6	710.3 ± 1.6	697.7 ± 1.6	685.5 ± 1.6	673.5 ± 1.6	661.5 ± 1.6
60000 kPa	722.5 ± 1.6	713.3 ± 1.6	701 ± 1.6	689.1 ± 1.6	677.3 ± 1.6	665.5 ± 1.7
65000 kPa	725.2 ± 1.6	716.1 ± 1.6	704.1 ± 1.6	692.4 ± 1.6	680.8 ± 1.7	669.3 ± 1.7
70000 kPa	727.9 ± 1.6	718.9 ± 1.6	707.1 ± 1.7	695.7 ± 1.7	684.3 ± 1.7	673.1 ± 1.7
80000 kPa	732.9 ± 1.7	724.2 ± 1.7	712.8 ± 1.7	701.7 ± 1.7	690.8 ± 1.7	680.1 ± 1.8
90000 kPa	737.7 ± 1.7	729.3 ± 1.7	718.2 ± 1.8	707.5 ± 1.8	696.9 ± 1.8	686.5 ± 1.8
100000 kPa	742.3 ± 1.8	734 ± 1.8	723.2 ± 1.8	712.8 ± 1.8	702.6 ± 1.9	692.5 ± 1.9
110000 kPa	746.6 ± 1.8	738.6 ± 1.8	728.1 ± 1.8	717.9 ± 1.9	708 ± 1.9	698.2 ± 1.9
120000 kPa	750.7 ± 1.8	742.8 ± 1.9	732.6 ± 1.9	722.7 ± 1.9	713 ± 2	703.4 ± 2
130000 kPa	754.6 ± 1.9	747 ± 1.9	737 ± 1.9	727.3 ± 2	717.9 ± 2	708.5 ± 2
140000 kPa	758.4 ± 1.9	751.1 ± 2	741.1 ± 2	731.6 ± 2	722.3 ± 2.1	713.4 ± 2.1
